Assay results reported in patent publication US10954246B2, “Compound of EOC315 Mod.I crystal form and preparation method thereof” (Taizhou EOC Pharma Co., Ltd., priority 2017, dated 2021).
Structures can show the parent of a compound that is named as a salt.

Assay: Long-term stability study (25° C., RH 60%)
Format: physicochemical
Details: for Related substance Impurity 5 / Related substance Impurity 6 / Related substance Maximum single impurity / Related substance Impurity 1 / Related substance Impurity 2 / Related substance Impurity 3 / Related substance Total impurity / Related substance Impurity 4 / Crystalline form: 25° C./RH 60%; for Related substance Impurity 5 / Related substance Impurity 6: limit 0.10%; for Related substance Maximum single impurity: limit 0.15%; for Related substance Impurity 1 / Related substance Impurity 2 / Related substance Impurity 3: limit 0.17%; for Related substance Total impurity: limit 1.0%; for Related substance Impurity 4: limit 3.0%; for Crystalline form: limit ModI
Method: Long-term stability over twelve months was evaluated at 25° C. and a relative humidity of 60%; or accelerated stability over six months was evaluated at 40° C. and a relative humidity of 75%.

CNC(=O)c1cc(OCc2nnc(Nc3ccc(Cl)cc3)c3ccoc23)ccn1 [EOC315 crystalline form Mod. I, 4-(4-chloroanilino)-7-(2-methylaminocarbonyl-4-oxymethyl)pyridylfuro[2,3-d]pyridazine mesylate]
Related substance Impurity 5 (Month 0, listed as 151211): 0.02%
Related substance Impurity 6 (Month 0, listed as 151211): 0.01%
Related substance Impurity 5 (Month 0, listed as 151212): 0.01%
Related substance Impurity 6 (Month 0, listed as 151212): Undetected
Related substance Impurity 5 (Month 0, listed as 151213): Undetected
Related substance Impurity 6 (Month 0, listed as 151213): Undetected
Related substance Maximum single impurity (Month 0, listed as 151211): 0.0079%
Related substance Maximum single impurity (Month 0, listed as 151212): 0.012%
Related substance Maximum single impurity (Month 0, listed as 151213): 0.0085%
Related substance Impurity 1 (Month 0): Undetected
Related substance Impurity 2 (Month 0): Undetected
Related substance Impurity 3 (Month 0, listed as 151211): 0.016%
Related substance Impurity 3 (Month 0, listed as 151212): 0.011%
Related substance Impurity 3 (Month 0, listed as 151213): 0.011%
Related substance Total impurity (Month 0, listed as 151211): 0.53%
Related substance Total impurity (Month 0, listed as 151212): 0.65%
Related substance Total impurity (Month 0, listed as 151213): 0.52%
Related substance Impurity 4 (Month 0, listed as 151211): 0.36%
Related substance Impurity 4 (Month 0, listed as 151212): 0.46%
Related substance Impurity 4 (Month 0, listed as 151213): 0.35%
Crystalline form (Month 0): ModI
Related substance Impurity 6 (Month 3): Undetected
Related substance Impurity 5 (Month 3, listed as 151211): 0.01%
Related substance Impurity 5 (Month 3, listed as 151212): 0.02%
Related substance Impurity 5 (Month 3, listed as 151213): 0.01%
Related substance Maximum single impurity (Month 3): Undetected
Related substance Impurity 1 (Month 3): Undetected
Related substance Impurity 2 (Month 3): Undetected
Related substance Impurity 3 (Month 3): Undetected
Related substance Total impurity (Month 3, listed as 151211): 0.5%
Related substance Total impurity (Month 3, listed as 151212): 0.6%
Related substance Total impurity (Month 3, listed as 151213): 0.5%
Related substance Impurity 4 (Month 3, listed as 151211): 0.4%
Related substance Impurity 4 (Month 3, listed as 151212): 0.5%
Related substance Impurity 4 (Month 3, listed as 151213): 0.38%
Related substance Impurity 6 (Month 6): 0.01%
Related substance Impurity 5 (Month 6, listed as 151211): Undetected
Related substance Impurity 5 (Month 6, listed as 151212): 0.02%
Related substance Impurity 5 (Month 6, listed as 151213): Undetected
Related substance Maximum single impurity (Month 6, listed as 151211): 0.013%
Related substance Maximum single impurity (Month 6, listed as 151212): 0.070%
Related substance Maximum single impurity (Month 6, listed as 151213): 0.016%
Related substance Impurity 1 (Month 6): Undetected
Related substance Impurity 2 (Month 6, listed as 151211): 0.0028%
Related substance Impurity 3 (Month 6, listed as 151211): 0.099%
Related substance Impurity 2 (Month 6, listed as 151212): Undetected
Related substance Impurity 3 (Month 6, listed as 151212): 0.031%
Related substance Impurity 2 (Month 6, listed as 151213): Undetected
Related substance Impurity 3 (Month 6, listed as 151213): 0.033%
Related substance Total impurity (Month 6, listed as 151211): 0.73%
Related substance Total impurity (Month 6, listed as 151212): 0.88%
Related substance Total impurity (Month 6, listed as 151213): 0.63%
Related substance Impurity 4 (Month 6, listed as 151211): 0.42%
Related substance Impurity 4 (Month 6, listed as 151212): 0.54%
Related substance Impurity 4 (Month 6, listed as 151213): 0.40%
Crystalline form (Month 6): ModI
Related substance Impurity 5 (Month 9, listed as 151211): 0.02%
Related substance Impurity 6 (Month 9, listed as 151211): Undetected
Related substance Impurity 5 (Month 9, listed as 151212): 0.01%
Related substance Impurity 6 (Month 9, listed as 151212): 0.01%
Related substance Impurity 5 (Month 9, listed as 151213): Undetected
Related substance Impurity 6 (Month 9, listed as 151213): Undetected
Related substance Maximum single impurity (Month 9, listed as 151211): 0.013%
Related substance Maximum single impurity (Month 9, listed as 151212): Undetected
Related substance Maximum single impurity (Month 9, listed as 151213): Undetected
Related substance Impurity 1 (Month 9): Undetected
Related substance Impurity 2 (Month 9): Undetected
Related substance Impurity 3 (Month 9): Undetected
Related substance Total impurity (Month 9, listed as 151211): 0.61%
Related substance Total impurity (Month 9, listed as 151212): 0.77%
Related substance Total impurity (Month 9, listed as 151213): 0.58%
Related substance Impurity 4 (Month 9, listed as 151211): 0.43%
Related substance Impurity 4 (Month 9, listed as 151212): 0.56%
Related substance Impurity 4 (Month 9, listed as 151213): 0.42%
Related substance Impurity 5 (Month 12, listed as 151211): 0.01%
Related substance Impurity 6 (Month 12, listed as 151211): 0.03%
Related substance Impurity 5 (Month 12, listed as 151212): Undetected
Related substance Impurity 6 (Month 12, listed as 151212): 0.02%
Related substance Impurity 5 (Month 12, listed as 151213): 0.01%
Related substance Impurity 6 (Month 12, listed as 151213): Undetected
Related substance Maximum single impurity (Month 12): Undetected
Related substance Impurity 1 (Month 12): Undetected
Related substance Impurity 2 (Month 12): Undetected
Related substance Impurity 3 (Month 12): Undetected
Related substance Total impurity (Month 12, listed as 151211): 0.63%
Related substance Total impurity (Month 12, listed as 151212): 0.80%
Related substance Total impurity (Month 12, listed as 151213): 0.58%
Related substance Impurity 4 (Month 12, listed as 151211): 0.46%
Related substance Impurity 4 (Month 12, listed as 151212): 0.58%
Related substance Impurity 4 (Month 12, listed as 151213): 0.42%
Crystalline form (Month 12): ModI
stability of the crystalline form (conclusion from tables 4 and 5) (long-term and accelerated stability): thermodynamically stable form
